US20230086703A1, “N-(4-(5-chloropyridin-3-yl)phenyl)-2-(2-(cyclopropanesulfonamido)pyrimidin-4-yl) butanamide derivatives and related compounds as human CTPS1 inhibitors for the treatment of proliferative diseases” (Step Pharma S.A.S., priority 2019, published 2023)
“And” between values parts separate entries of the source, which are not always exact repeats. Equal values may be shown once.

Target: T1, human CTPS1 (Homo sapiens, UniProt P17812)
T1 construct: FLAG (with GG linker); His8 (with GG linker); purchased Proteros biostructures GmbH
T1 sequence (P17812 1-591): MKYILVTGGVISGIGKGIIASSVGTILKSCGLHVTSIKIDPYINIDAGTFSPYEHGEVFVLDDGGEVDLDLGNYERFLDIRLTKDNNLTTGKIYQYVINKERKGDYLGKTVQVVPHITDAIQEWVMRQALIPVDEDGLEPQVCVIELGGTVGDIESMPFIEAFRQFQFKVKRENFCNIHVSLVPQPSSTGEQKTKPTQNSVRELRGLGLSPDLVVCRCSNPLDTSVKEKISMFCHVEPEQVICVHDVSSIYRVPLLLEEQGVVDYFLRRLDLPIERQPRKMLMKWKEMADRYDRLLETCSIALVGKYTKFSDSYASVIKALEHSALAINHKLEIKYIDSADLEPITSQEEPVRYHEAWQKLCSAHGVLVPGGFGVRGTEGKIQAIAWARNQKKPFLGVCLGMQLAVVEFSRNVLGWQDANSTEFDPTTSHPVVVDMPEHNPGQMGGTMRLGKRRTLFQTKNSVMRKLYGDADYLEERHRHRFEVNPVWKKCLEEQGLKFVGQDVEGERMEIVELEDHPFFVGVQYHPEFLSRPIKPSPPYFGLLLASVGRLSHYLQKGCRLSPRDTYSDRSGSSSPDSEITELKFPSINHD
Test: Human CTPS1 enzyme inhibition, ADP-Glo Max assay
Assay type: biochemical
Settings: ADP-Glo Max assay; Table 10; read-out: Human CTPS1 Enzyme Inhibition, IC50 grouped by potency range (CTPS1)
Procedure, shortened: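 Read-out is ADP-Glo Max luminescence: residual ATP depleted (60 min), then produced ADP converted back to ATP for luciferase detection (60 min). Beforehand, protein and compound were mixed for 10 min at 25 °C in Tris buffer pH 8.0 with MgCl2, Tween-20 and 2 mM L-cysteine. Results expressed as percentage inhibition per concentration.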

Row | SMILES | IC50
1 | CC(C)(C(=O)Nc1ccc(-c2cncc(OC(F)F)c2)cc1F)c1csc(NS(=O)(=O)C2CC2)n1 [T139, 2-(2-(cyclopropanesulfonamido)thiazol-4-yl)-N-(4-(5-(difluoromethoxy)pyridin-3-yl)-2-fluorophenyl)-2-methylpropanamide] | < 100 nM
2 | CC(C)(C(=O)Nc1ccc(-c2cnccn2)cn1)c1csc(NS(=O)(=O)C2CC2)n1 [T140, 2-(2-(cyclopropanesulfonamido)thiazol-4-yl)-2-methyl-N-(5-(pyrazin-2-yl)pyridin-2-yl)propanamide] | 100 to 1000 nM
3 | CC(C)(C(=O)Nc1ccc(-c2cncc(OC3CCC3)n2)cn1)c1csc(NS(=O)(=O)C2CC2)n1 [T141, N-(5-(6-cyclobutoxypyrazin-2-yl)pyridin-2-yl)-2-(2-(cyclopropanesulfonamido)thiazol-4-yl)-2-methylpropanamide] | 100 to 1000 nM
4 | CC(C)(C(=O)Nc1ccc(-c2cncc(OC3CC3)n2)cn1)c1csc(NS(=O)(=O)C2CC2)n1 [T142, 2-(2-(cyclopropanesulfonamido)thiazol-4-yl)-N-(5-(6-cyclopropoxypyrazin-2-yl)pyridin-2-yl)-2-methylpropanamide] | < 100 nM
5 | CC(C)Oc1cncc(-c2ccc(NC(=O)C(C)(C)c3csc(NS(=O)(=O)C4CC4)n3)nc2)n1 [T143, 2-(2-(cyclopropanesulfonamido)thiazol-4-yl)-N-(5-(6-isopropoxypyrazin-2-yl)pyridin-2-yl)-2-methylpropanamide] | < 100 nM
6 | CCC(CC)(C(=O)Nc1ccc(-c2cccnc2)cn1)c1csc(NS(=O)(=O)C2CC2)n1 [T144, N-([3,3′-bipyridin]-6-yl)-2-(2-(cyclopropanesulfonamido)thiazol-4-yl)-2-ethylbutanamide] | 100 to 1000 nM
7 | CCOc1cncc(-c2ccc(NC(=O)C(CC)(CC)c3csc(NS(=O)(=O)C4CC4)n3)nc2)c1 [T145, 2-(2-(cyclopropanesulfonamido)thiazol-4-yl)-N-(5′-ethoxy-[3,3′-bipyridin]-6-yl)-2-ethylbutanamide] | < 100 nM
8 | CCCOc1cncc(-c2ccc(NC(=O)C(C)(C)c3csc(NS(=O)(=O)C4CC4)n3)nc2)c1 [T146, 2-(2-(cyclopropanesulfonamido)thiazol-4-yl)-2-methyl-N-(5′-propoxy-[3,3′-bipyridin]-6-yl)propanamide] | 100 to 1000 nM
9 | CCC(CC)(C(=O)Nc1ccc(-c2cncc(C(F)(F)F)n2)cn1)c1csc(NS(=O)(=O)C2CC2)n1 [T147, 2-(2-(cyclopropanesulfonamido)thiazol-4-yl)-2-ethyl-N-(5-(6-(trifluoromethyl)pyrazin-2-yl)pyridin-2-yl)butanamide] | < 100 nM
10 | CC(C)(C(=O)Nc1ccc(-c2cccnc2)cn1)c1csc(NS(=O)(=O)C2CC2)n1 [T148, N-([3,3′-bipyridin]-6-yl)-2-(2-(cyclopropanesulfonamido)thiazol-4-yl)-2-methylpropanamide] | 100 to 1000 nM
11 | COc1cc(-c2cccnc2)ccc1NC(=O)C(C)(C)c1csc(NS(=O)(=O)C2CC2)n1 [T149, 2-(2-(cyclopropanesulfonamido)thiazol-4-yl)-N-(2-methoxy-4-(pyridin-3-yl)phenyl)-2-methylpropanamide] | < 100 nM
12 | COc1cc(NC(=O)C(C)(C)c2csc(NS(=O)(=O)C3CC3)n2)ccc1-c1cccnc1 [T150, 2-(2-(cyclopropanesulfonamido)thiazol-4-yl)-N-(3-methoxy-4-(pyridin-3-yl)phenyl)-2-methylpropanamide] | 100 to 1000 nM
13 | CC(C)(C(=O)Nc1ccc(-c2cccnc2)c(F)c1)c1csc(NS(=O)(=O)C2CC2)n1 [T151, 2-(2-(cyclopropanesulfonamido)thiazol-4-yl)-N-(3-fluoro-4-(pyridin-3-yl)phenyl)-2-methylpropanamide] | 100 to 1000 nM
14 | CC(C)(C(=O)Nc1ccc(-c2cccnc2)c(C#N)c1)c1csc(NS(=O)(=O)C2CC2)n1 [T152, N-(3-cyano-4-(pyridin-3-yl)phenyl)-2-(2-(cyclopropanesulfonamido)thiazol-4-yl)-2-methylpropanamide] | 100 to 1000 nM
15 | CC(C)(C(=O)Nc1ccc(-c2cncc(C#N)n2)cc1)c1csc(NS(=O)(=O)C2CC2)n1 [T154, N-(4-(6-cyanopyrazin-2-yl)phenyl)-2-(2-(cyclopropanesulfonamido)thiazol-4-yl)-2-methylpropanamide] | 100 to 1000 nM
16 | CC(C)(C(=O)Nc1ccc(-c2cncc(Cl)n2)cc1)c1csc(NS(=O)(=O)C2CC2)n1 [T155, N-(4-(6-chloropyrazin-2-yl)phenyl)-2-(2-(cyclopropanesulfonamido)thiazol-4-yl)-2-methylpropanamide] | < 100 nM

Row | SMILES | IC50
17 | CCC(CC)(C(=O)Nc1ccc(-c2cncc(F)c2)cc1)c1csc(NS(=O)(=O)C2CC2)n1 [T156, 2-(2-(cyclopropanesulfonamido)thiazol-4-yl)-2-ethyl-N-(4-(5-fluoropyridin-3-yl)phenyl)butanamide] | < 100 nM
18 | CCCOc1cncc(-c2ccc(NC(=O)C(C)(C)c3csc(NS(=O)(=O)C4CC4)n3)cc2)c1 [T157, 2-(2-(cyclopropanesulfonamido)thiazol-4-yl)-2-methyl-N-(4-(5-propoxypyridin-3-yl)phenyl)propanamide] | < 100 nM
19 | CC(C)Oc1cncc(-c2ccc(NC(=O)C(C)(C)c3csc(NS(=O)(=O)C4CC4)n3)cc2)c1 [T158, 2-(2-(cyclopropanesulfonamido)thiazol-4-yl)-N-(4-(5-isopropoxypyridin-3-yl)phenyl)-2-methylpropanamide] | < 100 nM
20 | CC(C)Oc1cncc(-c2ccc(NC(=O)C(C)(C)c3csc(NS(=O)(=O)C4CC4)n3)c(F)c2)c1 [T159, 2-(2-(cyclopropanesulfonamido)thiazol-4-yl)-N-(2-fluoro-4-(5-isopropoxypyridin-3-yl)phenyl)-2-methylpropanamide] | < 100 nM
21 | CCC(CC)(C(=O)Nc1ccc(-c2cncc(C#N)n2)cc1)c1csc(NS(=O)(=O)C2CC2)n1 [T161, N-(4-(6-cyanopyrazin-2-yl)phenyl)-2-(2-(cyclopropanesulfonamido)thiazol-4-yl)-2-ethylbutanamide] | 100 to 1000 nM and 1000 to 10000 nM
22 | CC(C)(C(=O)Nc1ccc(-c2cccnc2)cc1)c1csc(NS(C)(=O)=O)n1 [T163, 2-methyl-2-(2-(methylsulfonamido)thiazol-4-yl)-N-(4-(pyridin-3-yl)phenyl)propanamide] | 100 to 1000 nM
23 | CN(C(=O)C(C)(C)c1csc(NS(=O)(=O)C2CC2)n1)c1ccc(-c2cccnc2)cc1 [T164, 2-(2-(cyclopropanesulfonamido)thiazol-4-yl)-N,2-dimethyl-N-(4-(pyridin-3-yl)phenyl)propanamide] | 1000 to 10000 nM
24 | O=C(Cc1csc(NS(=O)(=O)C2CC2)n1)Nc1ccc(-c2cccnc2)c(F)c1F [T188, 2-(2-(cyclopropanesulfonamido)thiazol-4-yl)-N-(2,3-difluoro-4-(pyridin-3-yl)phenyl)acetamide] | 100 to 1000 nM
25 | COc1cc(-c2cccnc2)ccc1NC(=O)Cc1csc(NS(=O)(=O)C2CC2)n1 [T215, 2-(2-(cyclopropanesulfonamido)thiazol-4-yl)-N-(2-methoxy-4-(pyridin-3-yl)phenyl)acetamide] | < 100 nM
26 | O=C(Cc1csc(NS(=O)(=O)C2CC2)n1)Nc1ccc(-c2cccnc2)cc1F [T216, 2-(2-(cyclopropanesulfonamido)thiazol-4-yl)-N-(2-fluoro-4-(pyridin-3-yl)phenyl)acetamide] | 100 to 1000 nM
27 | COc1cncc(-c2ccc(NC(=O)C(C)(C)c3csc(NS(=O)(=O)C4CC4)n3)nc2)c1 [T224, 2-(2-(cyclopropanesulfonamido)thiazol-4-yl)-N-(5′-methoxy-[3,3′-bipyridin]-6-yl)-2-methylpropanamide] | < 100 nM
28 | CC(C)(C(=O)Nc1ccc(-c2cncc(Cl)c2)cn1)c1csc(NS(=O)(=O)C2CC2)n1 [T225, N-(5′-chloro-[3,3′-bipyridin]-6-yl)-2-(2-(cyclopropanesulfonamido)thiazol-4-yl)-2-methylpropanamide] | < 100 nM
29 | CC(C)(C(=O)Nc1ccc(-c2cncc(C#N)c2)cn1)c1csc(NS(=O)(=O)C2CC2)n1 [T226, N-(5′-cyano-[3,3′-bipyridin]-6-yl)-2-(2-(cyclopropanesulfonamido)thiazol-4-yl)-2-methylpropanamide] | < 100 nM
30 | CC(C)(C(=O)Nc1ncc(-c2cccnc2)cc1F)c1csc(NS(=O)(=O)C2CC2)n1 [T227, 2-(2-(cyclopropanesulfonamido)thiazol-4-yl)-N-(5-fluoro-[3,3′-bipyridin]-6-yl)-2-methylpropanamide] | 100 to 1000 nM
31 | CC(C)(C(=O)Nc1ncc(-c2cncc(C#N)c2)cc1F)c1csc(NS(=O)(=O)C2CC2)n1 [T228, N-(5′-cyano-5-fluoro-[3,3′-bipyridin]-6-yl)-2-(2-(cyclopropanesulfonamido)thiazol-4-yl)-2-methylpropanamide] | < 100 nM
32 | CC(C)(C(=O)Nc1ncc(-c2cncc(Cl)c2)cc1F)c1csc(NS(=O)(=O)C2CC2)n1 [T229, N-(5′-chloro-5-fluoro-[3,3′-bipyridin]-6-yl)-2-(2-(cyclopropanesulfonamido)thiazol-4-yl)-2-methylpropanamide] | < 100 nM
